According to PMC7099587 (ACS Central Science, 2020):
Numbered stars: 1 amine (or outer) side, 2 acyl side, 3 side chain; on linkers, the order of the positions; unused ones are H or OH. Bridge positions count the residues as written; N and C are the ends. Square brackets hold non-standard residues; d marks the D form. Ends that are not written are not given here. Peptide text beside a SMILES is read from it. CH2CH2 = C(C[*:2])[*:1]

How the values were obtained:
Sonic Hedgehog (Shh) = Sonic Hedgehog (Shh) (Homo sapiens, UniProt Q15465); test: Shh binding assay
Shh = conditions: read-out: KD (Shh); cited from earlier work
[1] = target: HHIP L2 linear peptide L2 loop (Homo sapiens) (UniProt Q96QV1); conditions: cited from earlier work
[2] = target: Sonic Hedgehog construct with N-terminal poly-His tag and TEV-cleavable linker ("Shh") (UniProt Q15465); test: ELISA
Keap1 Kelch domain (KKD) = Keap1 Kelch domain (KKD) (Homo sapiens, UniProt Q14145); test: Keap1 Kelch domain direct binding assay
[3] = target: Kelch domain of Kelch-like ECH-associated protein 1 (Keap1); test: ELISA

Chain of Keap1 Kelch domain (KKD) (Q14145 321-609 limits assumed): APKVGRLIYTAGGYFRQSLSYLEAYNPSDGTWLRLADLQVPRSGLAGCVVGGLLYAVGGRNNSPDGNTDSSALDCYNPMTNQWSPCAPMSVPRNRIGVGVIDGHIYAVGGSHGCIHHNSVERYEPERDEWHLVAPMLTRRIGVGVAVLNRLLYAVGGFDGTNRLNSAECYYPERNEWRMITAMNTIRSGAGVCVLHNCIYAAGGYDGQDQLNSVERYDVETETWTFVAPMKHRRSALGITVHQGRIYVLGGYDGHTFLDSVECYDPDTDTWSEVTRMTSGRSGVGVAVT

Work on `CSCC[C@@H]1NC(=O)[C@H](C)NC(=O)[C@H](CCC(=O)O)NC(=O)[C@@H](NC(=O)[C@@H]2CCCN2C(=O)[C@H](CO)NC(=O)[C@H](CO)NC(=O)CNC(=O)[C@H](CO)NC(=O)CNC(=O)[C@H](CO)NC(=O)CNC(=O)[C@H](CCCCN)NC(=O)[C@H](CC(=O)O)NC(=O)[C@H](CC(=O)O)NC(=O)[C@H](CC(=O)O)NC(=O)[C@H](CC(=O)O)NC(=O)[C@H](CCCCN)NC(=O)[C@H](Cc2ccc(O)cc2)NC(=O)[C@H](CC(=O)O)NC(=O)[C@@H](N)CCSC)Cc2ccc(cc2)OCCSC[C@@H](C(=O)N[C@H](C(=O)N[C@@H](CC(=O)O)C(=O)N[C@H](C(=O)O)[C@@H](C)O)[C@@H](C)O)NC(=O)[C@H](CCSC)NC(=O)[C@H](CC(=O)O)NC1=O` [Shh-m1] (H-MDYKDDDDKGSGSGSSPYEAMDMCTDT-OH; linker 18-24 via CH2CH2; N-terminus and C-terminus assumed) yielded a Kd (Sonic Hedgehog (Shh)) of 550 nM.

For `CSCC[C@@H]1NC(=O)[C@H](CCC(=O)O)NC(=O)[C@H](CCC(=O)O)NC(=O)[C@@H](NC(=O)[C@H](CC(=O)O)NC(=O)[C@H](CC(=O)O)NC(=O)[C@H](CC(C)C)NC(=O)[C@@H](NC(=O)[C@H](CO)NC(=O)CNC(=O)[C@H](CO)NC(=O)CNC(=O)[C@H](CCCCN)NC(=O)[C@H](CC(=O)O)NC(=O)[C@H](CC(=O)O)NC(=O)[C@H](CC(=O)O)NC(=O)[C@H](CC(=O)O)NC(=O)[C@H](CCCCN)NC(=O)[C@H](Cc2ccc(O)cc2)NC(=O)[C@H](CC(=O)O)NC(=O)[C@@H](N)CCSC)[C@@H](C)O)Cc2ccc(cc2)OCCSC[C@@H](C(=O)N[C@@H](CO)C(=O)N[C@@H](CC(=O)O)C(=O)N[C@H](C(=O)O)[C@@H](C)O)NC(=O)CNC(=O)[C@H](CC(=O)O)NC1=O` [cyclic version of the HHIP L2 sequence] (H-MDYKDDDDKGSGSTLDDYEEMDGCSDT-OH; linker 18-24 via CH2CH2; C-terminus assumed), the “fold lower affinity vs Shh-m1” value (Sonic Hedgehog (Shh)) was about 7 fold.

In the case of `O=C(C[C@@H]1C/C=C/CCC(=O)O[C@H](c2ccccc2)CNC1=O)NCc1ccc(Cl)cc1` [robotnikinin], the Kd (Shh) is listed as 3100 nM.

In the case of Sonic Hedgehog (from UniProt Q15465), the Kd [1] is given as 150000 nM.

In the case of “TLSW(Y*)EAMDMCTD (sidechain bridge or staple) [HL2-m5]”, the Kd (Shh) is given as 170 nM.

Molecule “cyclic version of the HHIP L2 sequence (from UniProt Q96QV1 375-387) (peptide)” has a Kd [2] of 3600 nM.

In the case of “cyclo[Y*D(X)ETGEC] (sidechain bridge or staple) [KKD(6X)-m1]”, the “fold higher affinity vs KKD-m1” value (Keap1 Kelch domain (KKD)) is reported as about 3 fold.

With “cyclo[Y*D(X)ETGEC] (sidechain bridge or staple) [KKD(6X)-m2]” the “fold higher affinity vs KKD-m1” value (Keap1 Kelch domain (KKD)) was about 3 fold.

For [O2beY]DAETGEC (thioether 1-8) [KKD(6X)-m1], the Kd [3] was 40 nM.

For [O2beY]DIETGEC (thioether 1-8) [KKD(6X)-m2], the Kd [3] was 40 nM.
